Test results as given in US20170283834A1, “Processes for Producing A Fermentation Product Using A Fermenting Organism” (Novozymes A/S, priority 2014, published 2017).
Where “and” joins values, the source holds several entries; their conditions need not be identical. Identical values can stand only once.

System: Ethanol Red™
Test: Addition of benzoate, propionate and formate to ethanol fermentations (SSF of corn mash)
Type: cell-based, Saccharomyces cerevisiae
Conditions: for Glycerol pH 3.8 (w/v %) / Glycerol pH 5 (w/v %) / ETOH pH 3.8 (w/v %) / ETOH pH 5 (w/v %) / % Boost over no added acid: 54 hours; for % Boost over no added acid: ethanol; for % Change from no added acid: glycerol
Protocol: Industrially prepared corn mash was obtained from Lincolnland (Liquozyme™ SODS liquefaction).
After 15 minutes, the flasks were swirled, but no other agitation took place.
The pH after liquefaction was 4.9 and was adjusted to various pHs for SSF. […] Glucoamylase SA (“GSA”)/Cellulase VD (“CVD”) enzyme blend was dosed to each tube of mash at 110 μg EP GSA/gDS and 30 μg EP CVD/gDS. […] Benzoic acid was added in the range of 0-0.8 mM. Propionic and Formic acid were added in the range of 0-30 mM. All acid additions were done prior to inoculation (i.e., before exponential growth).
Each tube was processed for HPLC analysis by deactivation with 150 μL of 40% v/v H2SO4, vortexing, centrifuging at 1460×g for 10 minutes, and filtering through a 0.45 μm Whatman PP filter. All samples were processed without further dilution.

[1] = acid Concentration 10 (mM), pH 3.8
[2] = acid Concentration 10 (mM), pH 5
[3] = acid Concentration 20 (mM), pH 3.8
[4] = acid Concentration 20 (mM), pH 5
[5] = acid Concentration 30 (mM), pH 3.8
[6] = acid Concentration 30 (mM), pH 5

Row | SMILES | Glycerol pH 3.8 (w/v %) (Concentration 10 mM, pH 3.8) | Glycerol pH 5 (w/v %) (Concentration 10 mM, pH 5) | Glycerol pH 3.8 (w/v %) (Concentration 20 mM, pH 3.8) | Glycerol pH 5 (w/v %) (Concentration 20 mM, pH 5) | Glycerol pH 3.8 (w/v %) (Concentration 30 mM, pH 3.8) | Glycerol pH 5 (w/v %) (Concentration 30 mM, pH 5) | ETOH pH 3.8 (w/v %) [1] | ETOH pH 5 (w/v %) [2] | ETOH pH 3.8 (w/v %) [3] | ETOH pH 5 (w/v %) [4] | ETOH pH 3.8 (w/v %) [5] | ETOH pH 5 (w/v %) [6] | % Boost over no added acid [1] | % Boost over no added acid [2] | % Boost over no added acid [3] | % Boost over no added acid [4] | % Boost over no added acid [5] | % Boost over no added acid [6] | % Change from no added acid (Concentration 10 mM, pH 3.8) | % Change from no added acid (Concentration 10 mM, pH 5) | further results
1 | O=CO [Formic Acid, formic acid] | 1.078 w/v % | 1.175 w/v % | 1.070 w/v % | 1.117 w/v % | 0.966 w/v % | 1.111 w/v % | 13.69 w/v % | 13.1 w/v % | 13.41 w/v % | 13.22 w/v % | 6.458 w/v % | 13.2 w/v % | 2.45% | 0.94% | 0.31% | 1.84% | −51.69% | 1.70% | −17.68% | −12.49% | effect of acid addition on fermentation performance: boost; % Change from no added acid (Concentration 20 mM, pH 3.8): −18.24%; % Change from no added acid (Concentration 20 mM, pH 5): −16.81%; % Change from no added acid (Concentration 30 mM, pH 3.8): −26.19%; % Change from no added acid (Concentration 30 mM, pH 5): −17.26%
2 | CCC(=O)O [Propionic Acid, propionic acid] | 0.985 w/v % | 1.017 w/v % | 0.896 w/v % | 0.927 w/v % | 0.654 w/v % | 0.874 w/v % | 13.2 w/v % | 13.26 w/v % | 11.67 w/v % | 12.87 w/v % | 3.064 w/v % | 11.8064 w/v % | −1.27% | 2.2% and 2.21% | −12.7% | −0.84% | −77.08% | −9.03% | −24.78% | −24.26% | % Change from no added acid (Concentration 20 mM, pH 3.8): −31.55%; % Change from no added acid (Concentration 20 mM, pH 5): −30.95%; % Change from no added acid (Concentration 30 mM, pH 3.8): −50.02%; % Change from no added acid (Concentration 30 mM, pH 5): −34.94%; effect on ethanol production at pH 3.8 (pH 3.8): negative effect
